Source: patent US20090226398A1, “ANTI-VIRAL COMPOUNDS, COMPOSITIONS, AND METHODS OF USE” (Genelabs Technologies, Inc., priority 2008, published 2009)

Test system: HCV replication
Test: Replicon Assay (Huh-lucubineo-ET cells, luciferase readout)
Type: cell-based
Conditions: Hepatitis C virus; ET (Huh-lucubineo-ET) HCV replicon cell line; luciferase activity 48-72 hours after compound addition; 6 dilutions
Method: A cell line, ET (Huh-lucubineo-ET) was used for screening of compounds of the present invention for inhibition of HCV replication. The ET cell line was stably transfected with RNA transcripts harboring a I389luc-ubi-neo/NS3-3′/ET; replicon with firefly luciferase-ubiquitin-neomycin phosphotransferase fusion protein and EMCV-IRES driven NS3-5B polyprotein containing the cell culture adaptive mutations (E1202G; T1280I; K1846T) (Krieger at al, 2001 and unpublished). The ET cells were grown in DMEM, supplemented with 10% fetal calf serum, 2 mM Glutamine, Penicillin (100 IU/mL)/Streptomycin (100 μg/mL), 1× nonessential amino acids, and 250 μg/mL G418 (“Geneticin”). They were all available through Life Technologies (Bethesda, Md.). The cells were plated at 0.5−1.0×10^4 cells/well in the 96 well plates and incubated for 24 hrs before adding the test compounds. The compounds were then added to the cells to achieve a final concentration of 5 or 50 μM. Luciferase activity was measured 48-72 hours later by adding a lysis buffer and the substrate (Catalog number Glo-lysis buffer E2661 and Bright-Glo luciferase system E2620 Promega, Madison, Wis.). Cells should not be too confluent during the assay. Percent inhibition of replication was plotted relative to no compound control. For EC50 (effective concentration at which 50% of the maximum inhibition is observed) determinations, 6 dilutions of each compound were used. Compounds were typically diluted 3 fold to span a concentration range of 250 fold. EC50 and similarly TC50 values were calculated by fitting % inhibition at each concentration to the following equation:
% inhibition=100%/[(EC50/[I])^b+1]
where b is Hill's coefficient.

SMILES | EC50
Fc1cccc(-c2nc3cnn(Cc4ccc(-c5ccc(C(F)(F)F)cc5)cn4)cc-3n2)c1F [Compound 246, 2-(2,3-Difluoro-phenyl)-5-[5-(4-trifluoromethyl-phenyl)-pyridin-2-ylmethyl]-5H-imidazo[4,5-d]pyridazine] | ≥ 50 µM
CCCOc1ccc(-c2ccc(Cn3cc4nc(-c5cccc(F)c5F)nc-4cn3)nc2)cc1 [Compound 247, 2-(2,3-Difluoro-phenyl)-5-[5-(4-propoxy-phenyl)-pyridin-2-ylmethyl]-5H-imidazo[4,5-d]pyridazine] | 5.08 µM
Fc1cccc(-c2nc3cnn(Cc4ccc(-c5ccc(OC(F)(F)F)cc5)nc4)cc-3n2)c1F [Compound 249, 2-(2,3-Difluoro-phenyl)-5-[6-(4-trifluoromethoxy-phenyl)-pyridin-3-ylmethyl]-5H-imidazo[4,5-d]pyridazine] | ≥ 50 µM
Fc1cccc(-c2nc3cnn(Cc4ccc(-c5ccccc5C(F)(F)F)nc4)cc-3n2)c1F [Compound 250, 2-(2,3-Difluoro-phenyl)-5-[6-(2-trifluoromethyl-phenyl)-pyridin-3-ylmethyl]-5H-imidazo[4,5-d]pyridazine] | ≥ 50 µM
Fc1cc(C(F)(F)F)ccc1-c1ccc(Cn2cc3nc(-c4cccc(F)c4F)nc-3cn2)cn1 [Compound 251, 2-(2,3-Difluoro-phenyl)-5-[6-(2-fluoro-4-trifluoromethyl-phenyl)-pyridin-3-ylmethyl]-5H-imidazo[4,5-d]pyridazine] | ≥ 50 µM
COc1ccc(-c2ccc(Cn3cc4nc(-c5cccc(F)c5F)nc-4cn3)c(-c3ccc(OC)cc3C(F)(F)F)n2)c(C(F)(F)F)c1 [Compound 252, 5-[2,6-Bis-(4-methoxy-2-trifluoromethyl-phenyl)-pyridin-3-ylmethyl]-2-(2,3-difluoro-phenyl)-5H-imidazo[4,5-d]pyridazine] | 2.64 µM
Fc1cccc(-c2nc3cnn(Cc4ccc(-c5ccc(C(F)(F)F)cc5)nc4)cc-3n2)c1F [Compound 253, 2-(2,3-Difluoro-phenyl)-5-[6-(4-trifluoromethyl-phenyl)-pyridin-3-ylmethyl]-5H-imidazo[4,5-d]pyridazine] | ≥ 50 µM
Fc1cc(C(F)(F)F)ccc1-c1ccc(Cn2cc3nc(-c4cccc(F)c4F)nc-3cn2)nc1 [Compound 254, 2-(2,3-Difluoro-phenyl)-5-[5-(2-fluoro-4-trifluoromethyl-phenyl)-pyridin-2-ylmethyl]-5H-imidazo[4,5-d]pyridazine] | ≥ 50 µM
COc1ccc(-c2ccc(Cn3cc4nc(-c5cccc(F)c5F)nc-4cn3)c(Cl)n2)c(C(F)(F)F)c1 [Compound 255, 5-[2-Chloro-6-(4-methoxy-2-trifluoromethyl-phenyl)-pyridin-3-ylmethyl]-2-(2,3-difluoro-phenyl)-5H-imidazo[4,5-d]pyridazine] | 0.069 µM
Fc1cccc(-c2nc3cnn(Cc4cccc(-c5ccc(C(F)(F)F)cc5C(F)(F)F)c4)cc-3n2)c1F [Compound 256, 5-(2′,4′-Bis-trifluoromethyl-biphenyl-3-ylmethyl)-2-(2,3-difluoro-phenyl)-5H-imidazo[4,5-d]pyridazine] | 9.79 µM
Fc1cc(-c2ccc(C(F)(F)F)cc2C(F)(F)F)ccc1Cn1cc2nc(-c3cccc(F)c3F)nc-2cn1 [Compound 257, 2-(2,3-Difluoro-phenyl)-5-(3-fluoro-2′,4′-bis-trifluoromethyl-biphenyl-4-ylmethyl)-5H-imidazo[4,5-d]pyridazine] | 0.045 µM
COc1ccc(-c2ccc(Cn3cc4nc(-c5cccc(F)c5F)nc-4cn3)cc2[N+](=O)[O-])c(C(F)(F)F)c1 [Compound 258, 2-(2,3-Difluoro-phenyl)-5-(4′-methoxy-2-nitro-2′-trifluoromethyl-biphenyl-4-ylmethyl)-5H-imidazo[4,5-d]pyridazine] | 0.228 µM
COc1ccc(-c2ccc(Cn3cc4nc(-c5cccc(F)c5F)nc-4cn3)c(F)c2)c(C(F)(F)F)c1 [Compound 259, 2-(2,3-Difluoro-phenyl)-5-(3-fluoro-4′-methoxy-2′-trifluoromethyl-biphenyl-4-ylmethyl)-5H-imidazo[4,5-d]pyridazine] | 0.02 µM
CCCOc1ccc(-c2ccc(Cn3cc4nc(-c5cccc(F)c5F)nc-4cn3)cc2[N+](=O)[O-])cc1 [Compound 260, 2-(2,3-Difluoro-phenyl)-5-(2-nitro-4′-propoxy-biphenyl-4-ylmethyl)-5H-imidazo[4,5-d]pyridazine] | 0.146 µM
COc1ccc(-c2ccc(Cn3cc4nc(-c5cccc(F)c5F)nc-4cn3)cc2F)c(C(F)(F)F)c1 [Compound 261, 2-(2,3-Difluoro-phenyl)-5-(2-fluoro-4′-methoxy-2′-trifluoromethyl-biphenyl-4-ylmethyl)-5H-imidazo[4,5-d]pyridazine] | 0.05 µM
Fc1cccc(-c2nc3cnn(Cc4ccc(Br)cn4)cc-3n2)c1F [Compound 262, 5-(5-bromo-pyridin-2-ylmethyl)-2-(2,3-difluoro-phenyl)-5H-imidazo[4,5-d]pyridazine] | ≥ 50 µM

SMILES | EC50
Fc1cccc(-c2nc3cnn(Cc4ccc(C(F)(F)F)cc4C(F)(F)F)cc-3n2)c1F [Compound 263, 5-(2,4-Bis-trifluoromethyl-benzyl)-2-(2,3-difluoro-phenyl)-5H-imidazo[4,5-d]pyridazine] | ≥ 50 µM
N#Cc1ccccc1-c1ccc(Cn2cc3nc(-c4cccc(F)c4F)nc-3cn2)cc1 [Compound 264, 4′-[2-(2,3-Difluoro-phenyl)-imidazo[4,5-d]pyridazin-5-ylmethyl]-biphenyl-2-carbonitrile] | 0.892 µM
COc1ccc(-c2cnc(Cn3cc4nc(-c5cccc(F)c5F)nc-4cn3)nc2)c(C(F)(F)F)c1 [Compound 265, 2-(2,3-Difluoro-phenyl)-5-[5-(4-methoxy-2-trifluoromethyl-phenyl)-pyrimidin-2-ylmethyl]-5H-imidazo[4,5-d]pyridazine] | 0.228 µM
CCCOc1ccc(-c2cnc(Cn3cc4nc(-c5cccc(F)c5F)nc-4cn3)nc2)c(C(F)(F)F)c1 [Compound 266, 2-(2,3-Difluoro-phenyl)-5-[5-(4-propoxy-2-trifluoromethyl-phenyl)-pyrimidin-2-ylmethyl]-5H-imidazo[4,5-d]pyridazine] | 0.218 µM
Fc1ccccc1-c1nc2cnn(Cc3ccc(-c4ccc(C(F)(F)F)cc4C(F)(F)F)cn3)cc-2n1 [Compound 267, 5-[5-(2,4-Bis-trifluoromethyl-phenyl)-pyridin-2-ylmethyl]-2-(2-fluoro-phenyl)-5H-imidazo[4,5-d]pyridazine] | 1.3 µM
Cc1nc(-c2ccc(Cn3cc4nc(-c5cccc(F)c5F)nc-4cn3)cc2)cs1 [Compound 268, 2-(2,3-Difluoro-phenyl)-5-[4-(2-methyl-thiazol-4-yl)-benzyl]-5H-imidazo[4,5-d]pyridazine] | ≥ 50 µM
Fc1cccc(-c2nc3cnn(CCCCc4ccc(C(F)(F)F)cc4C(F)(F)F)cc-3n2)c1F [Compound 269, 5-[4-(2,4-Bis-trifluoromethyl-phenyl)-butyl]-2-(2,3-difluoro-phenyl)-5H-imidazo[4,5-d]pyridazine] | 25 µM
Fc1cccc(-c2nc3cnn(CCCc4ccc(C(F)(F)F)cc4C(F)(F)F)cc-3n2)c1F [Compound 270, 5-[3-(2,4-Bis-trifluoromethyl-phenyl)-propyl]-2-(2,3-difluoro-phenyl)-5H-imidazo[4,5-d]pyridazine] | 52.5 µM
COc1ccc(-c2ncc(Cn3cc4nc(-c5cccc(F)c5F)nc-4cn3)cn2)c(C(F)(F)F)c1 [Compound 271, 2-(2,3-Difluoro-phenyl)-5-[2-(4-methoxy-2-trifluoromethyl-phenyl)-pyrimidin-5-ylmethyl]-5H-imidazo[4,5-d]pyridazine] | 0.049 µM
Fc1cccc(-c2nc3cnn(Cc4ccc(-c5ccsc5)cc4)cc-3n2)c1F [Compound 272, 2-(2,3-Difluoro-phenyl)-5-(4-thiophen-3-yl-benzyl)-5H-imidazo[4,5-d]pyridazine] | 18.7 µM
O=C(Nc1ccccc1)c1ccc(Cn2cc3nc(-c4cccc(F)c4F)nc-3cn2)cc1 [Compound 273, 4-[2-(2,3-Difluoro-phenyl)-imidazo[4,5-d]pyridazin-5-ylmethyl]-N-phenyl-benzamide] | ≥ 50 µM
COc1ccc(NC(=O)c2ccc(Cn3cc4nc(-c5cccc(F)c5F)nc-4cn3)cc2)cc1 [Compound 274, 4-[2-(2,3-Difluoro-phenyl)-imidazo[4,5-d]pyridazin-5-ylmethyl]-N-(4-methoxy-phenyl)-benzamide] | ≥ 50 µM
O=S(=O)(c1ccc(Cn2cc3nc(-c4cccc(F)c4F)nc-3cn2)cc1)N1CCOCC1 [Compound 275, 2-(2,3-Difluoro-phenyl)-5-[4-(morpholine-4-sulfonyl)-benzyl]-5H-imidazo[4,5-d]pyridazine] | ≥ 50 µM
Fc1cccc(-c2nc3cnn(Cc4ccc5nsnc5c4)cc-3n2)c1F [Compound 276, 5-Benzo[1,2,5]thiadiazol-5-ylmethyl-2-(2,3-difluoro-phenyl)-5H-imidazo[4,5-d]pyridazine] | ≥ 50 µM
Cc1nc(-c2ccc(Cn3cc4nc(-c5cccc(F)c5F)nc-4cn3)cc2)no1 [Compound 277, 2-(2,3-Difluoro-phenyl)-5-[4-(5-methyl-[1,2,4]oxadiazol-3-yl)-benzyl]-5H-imidazo[4,5-d]pyridazine] | ≥ 50 µM
